Test results reported in ChEMBL document CHEMBL1123958, “Synthesis and antiviral properties of (E)-5-(2-bromovinyl)-2'-deoxycytidine-related compounds” (J Med Chem, 1988).

Experiments:
Human alphaherpesvirus 2 [1] = experiment: Concentration required to reduce HSV-2 virus induced cytopathogenicity in rabbit cell kidney culture (Lyons cells); type: functional, organism-based
Human alphaherpesvirus 2 [2] = experiment: Concentration required to reduce HSV-2 virus induced cytopathogenicity in rabbit cell kidney culture (196 cells); type: functional, organism-based
Human alphaherpesvirus 1 [3] = experiment: Concentration required to reduce HSV-1 virus induced cytopathogenicity in rabbit cell kidney culture (KOS cells); type: functional, organism-based
Human alphaherpesvirus 2 [4] = experiment: Concentration required to reduce HSV-2 virus induced cytopathogenicity in rabbit cell kidney culture (G cells); type: functional, organism-based
Human alphaherpesvirus 1 [5] = experiment: Concentration required to reduce HSV-1 virus induced cytopathogenicity in rabbit cell kidney culture (McIntyre cells); type: functional, organism-based
[6] = system: Vesicular stomatitis virus; experiment: Concentration required to reduce vesicular stomatitis virus induced cytopathogenicity in rabbit cell kidney culture; type: functional, organism-based
Human alphaherpesvirus 1 [7] = experiment: Concentration required to reduce HSV-1 virus induced cytopathogenicity in rabbit cell kidney culture (F cells); type: functional, organism-based
Oryctolagus cuniculus [8] = species: Oryctolagus cuniculus; experiment: Minimum cytotoxic concentration causing microscopically detectable alteration of normal cell morphology of rabbit kidney cells; type: functional
Oryctolagus cuniculus [9] = species: Oryctolagus cuniculus; experiment: Minimum cytotoxic concentration causing microscopically detectable alteration of normal cell morphology of rabbit kideny cells; type: functional; parameters: unit not given here

Structure (SMILES)	Concentration (Human alphaherpesvirus 2 [1]) [µg/mL]	Concentration (Human alphaherpesvirus 2 [2]) [µg/mL]	Concentration (Human alphaherpesvirus 1 [3]) [µg/mL]	Concentration (Human alphaherpesvirus 2 [4]) [µg/mL]	Concentration (Human alphaherpesvirus 1 [5]) [µg/mL]	Concentration [6] [µg/mL]	Concentration (Human alphaherpesvirus 1 [7]) [µg/mL]	MCC (Oryctolagus cuniculus [8])	MCC (Oryctolagus cuniculus [9])
CC(=O)OC[C@H]1O[C@@H](n2cc(C)c(-n3cncn3)nc2=O)C[C@@H]1OC(C)=O	> 40	> 40	> 40	> 40	> 40	> 40	> 40	–	–
O=c1[nH]c(=O)n([C@H]2C[C@H](O)[C@@H](CO)O2)cc1/C=C/Br [BRIVUDINE]	7	30	0.02	2	0.02	> 400	0.02	>400	–
Nc1nc(=O)n([C@H]2C[C@H](O)[C@@H](CO)O2)cc1/C=C/Br	> 400	> 400	0.1	20	0.2	> 400	0.2	–	>400
O=c1nc(-n2cncn2)c(/C=C/Br)cn1C1CC(O)C(CCl)O1 (stereo not drawn)	> 100	> 100	70	> 100	> 100	> 100	> 100	–	>100
O=c1nc(-n2cncn2)c(/C=C/Br)cn1[C@H]1C[C@H](O)[C@@H](CO)O1	70	> 200	0.07	20	0.1	> 200	0.07	–	–
CC(=O)OC[C@H]1O[C@@H](n2cc(/C=C/Br)c(=O)[nH]c2=O)C[C@@H]1OC(C)=O	40	100	0.1	20	0.2	> 300	0.1	–	>300
CC(=O)OC[C@H]1O[C@@H](n2cc(/C=C/Br)c(-n3cncn3)nc2=O)C[C@@H]1OC(C)=O	20	20	0.1	20	0.07	> 200	0.2	–	–
Cc1cn([C@H]2C[C@H](O)[C@@H](CO)O2)c(=O)nc1-n1cncn1	20	20	> 40	20	20	> 40	> 40	–	–
Cc1cn(C2CC(O)C(CCl)O2)c(=O)nc1-n1cncn1 (stereo not drawn)	> 10	> 10	> 10	> 10	> 10	> 10	> 10	–	>10
